Patent publication US4395969A (priority 1981, dated 1983)

Experiments:
stickleback [1] = test: Deactivation with activated carbon, survival of stickleback; format: in vivo; details: 2 mg/l; for Mean survival time, bioassay started 18 hours after chemical was added / Mean survival time, bioassay started when chemical was added: river water, 15 C
Description: A second lot of 5 fish was added to each aquarium 18 hours after the first lot of 10 fish had died or lost their equilibrium. As the life of the first lot of fish was short, the test water was only slightly conditioned by the dying fish and any error introduced by this procedure was relatively small.

carp = test: Bioassay, carp; format: in vivo, Cyprinus carpio; details: for selectivity to carp: in vivo
Description: In a later bioassay a concentration of 1 mg/l of 2, 2-dichlorovinyl diethyl phosphate killed a 20 g carp (68 mm) in 10 l of artesian well water (load, 2.0 g/l) at 10 C. in 30 hours.
A subsequent series of bioassays tested concentrations of 0.0, 0.6, 0.8, 1.0, 1.5 and 2.0 mg/l of 2, 2-dichlorovinyl diethyl phosphate with larger carp (fork length range, 115-150 mm; mean weight, 44 g) using 10 fish per concentration (load, 0.7 g/l) and artesian well water at 10 C. A concentration of 2.0 mg/l of the chemical killed 100 percent of the carp in 24 hours and a concentration of 1.5 mg/l killed 90 percent of them in […] and 100 percent in 72 hours. No fish died in the control or at a concentration of 0.6 mg/l in 192-hour bioassays. In contrast the LC0 of salmonids exposed to 2, 2-dichlorovinyl diethyl phosphate varies between 4 and 8 mg/l in 48-hour bioassays and 2 and 6 mg/l in 96-hour bioassays at 10 C. (Table 2).

stickleback [2] = test: Control of stickleback in 24-hour applications, usable concentration; format: in vivo; details: for recommended safe and effective concentration: river water tests
Source text: For field applications the concentration of the dichloro- and tetrachloro-compounds would vary with water quality--mainly with regard to water temperature and hydrogen ion concentrations. Generally, treated areas would contain water low in dissolved solids and a pH of 7 to 7.5. The activity of the chemicals would then be essentially similar to that determined in our tests using river water. For the treatment of rivers and shorelines of lakes the concentrations of the dichloro- and tetrachloro-compounds that would be used would be those that would kill stickleback or suckers in 12 to 24 hours. The information above, relating to Examples 1 and 12, substantiates improvement in fish culture by the addition of dichloroethyl or dichlorovinyl diethyl phosphate to an aqueous habitat at a concentration in water ranging between 0.1 and 10 mg/l. […] The information above, relating to Example 2, substantiates improvement in fish culture by the addition of tetrachloroethyl diethyl phosphate to an aqueous habitat at a concentration in water ranging between 4 and 80 μg/l.

[3] = Half-life in river water with or without river mud, measured by bioassay with stickleback; format: physicochemical; details: river water with layer of river mud; 15 C
Description: The rate of deactivation was measured by bioassay with stickleback and the data were analyzed by conventional methods.

kokanee = test: Static bioassay, lethal concentration to kokanee; format: in vivo, a land-locked subspecies of sockeye salmon; details: 15 C
Description: (§1) Bioassays utilized water from an artesian well at Moscow, Idaho and from the headwaters of the Palouse River, also in Idaho. The chemical characteristics of the artesian water were analyzed as follows: Total hardness 67-120 mg/l; total dissolved solids, 160-175 mg/l; and pH 7.1. The chemistry of the Palouse River water was analyzed as follows: total hardness 17 mg/l; methyl orange alkalinity 26 mg/l; total dissolved solids, 32 mg/l and pH, 7.0.
(§2) Fish were acclimated to test temperatures, usually at 5, 7.5, 10, 15 and 20 degrees Celsius (C), at least 60 hours before exposure to toxicants. For fish and crayfish four water baths regulated the temperature of assay aquaria. Each water bath contained a battery of 20 identical 19-liter clear glass containers or 11.4-liter plastic aquaria lined with disposable polyethylene bags and covered with Plexiglass lids to reduce evaporation. For larger fish and large numbers of fish the bioassays were made in two temperature controlled rooms that contained a series of 700-liter circular fiberglass vats and a series of 76- and 91-liter plastic containers.
(§3) Standard bioassay techniques were used in sorting fish and conducting the tests. Fish were placed in aerated test aquaria overnight to permit fish to recover from stress due to handling and to deprive them of food. The average load varied but most bioassays were conducted with about 1 g of fish per liter of water.
(§4) Aliquots of organophosphates were dissolved in ethanol and dispensed to the aquaria to provide concentrations suitable for obtaining the LC0 and LC50 of desirable fish and the LC50 and LC100 of target fish. Control fish were conditioned in the same manner as the test fish, but no chemical was added to the control vessels during the assays. After the addition of a chemical, observations were made mainly at 3, 6, 12, 24, 48, 96, and 192 h. The weight and fork length of fish were obtained when fishes were sacrificed.
(§5) Delineation bioassays determined primarily the LC50 and LC100 of sucker and stickleback and the LC0 and LC50 of salmonids.
(§6) The statistical LC1, LC50, and LC99 were interpolated and/or extrapolated using probit graph paper to approximate the LC0, LC50, and LC100 when the latter set of values was not closely determined by single concentrations in a series.
(§7) Threespine stickleback, brook stickleback, bridgelip sucker, white sucker, chinook salmon, coho salmon, sockeye salmon, kokanee, Kamloops trout, cutthroat trout, and brook trout were treated with various concentrations of 2, 2, 2, 1-tetrachloroethyl diethyl phosphate and at various temperatures to determine approximate selectivity and safety indices. The approximate LC50 and LC100 of the target fishes (threespine and brook sticklebacks and bridgelip and white suckers) are tabulated in Table 5. The 96-hour selectivity and safety indices of selected species of salmonids versus the threespine stickleback are tabulated in Table 7.

[4] = Static bioassay, lethal concentration to kokanee; format: in vivo, a land-locked subspecies of sockeye salmon; details: kokanee, water, 15 C
Description: as §1, §2, §3, §4, §5, §6, §7

coho salmon = test: Static bioassay, lethal concentration to coho salmon; format: in vivo, Oncorhynchus kisutch; details: 10 C
Description: as §1, §2, §3, §4, §5, §6, §7

[5] = as above; format: in vivo, Oncorhynchus kisutch; details: coho salmon, water, 10 C
Description: as §1, §2, §3, §4, §5, §6, §7

**Q.** Which results are given for `CCOP(=O)(OC=C(Cl)Cl)OCC` [2,2-dichlorovinyl diethyl phosphate]?
**A.** effect of activated carbon on mortality (stickleback [1]): delayed mortality; survival time after 18-hour deactivation period (stickleback [1]; 8 and 32 mg/l of carbon): about tripled; Mean survival time, bioassay started 18 hours after chemical was added (stickleback [1]; activated carbon 0 mg/l): 9.5 h; Mean survival time, bioassay started when chemical was added (stickleback [1]; activated carbon 0 mg/l): 7.5 h; Mean survival time, bioassay started 18 hours after chemical was added (stickleback [1]; activated carbon 4 mg/l): 8.0 h; Mean survival time, bioassay started when chemical was added (stickleback [1]; activated carbon 4 mg/l): 9.2 h; Mean survival time, bioassay started 18 hours after chemical was added (stickleback [1]; activated carbon 8 mg/l): 33.5 h; Mean survival time, bioassay started when chemical was added (stickleback [1]; activated carbon 8 mg/l): 10.8 h; Mean survival time, bioassay started when chemical was added (stickleback [1]; activated carbon 16 mg/l): 12.0 h; Mean survival time, bioassay started when chemical was added (stickleback [1]; activated carbon 32 mg/l): 22.0 h; Mean survival time, bioassay started 18 hours after chemical was added (stickleback [1]; activated carbon 32 mg/l, 1 fish did not die (observed 11 days)): 95.0 h; carp mortality (carp; 0.6 mg/l, 192 h, artesian well water, 10 C): No fish died; time in which carp was killed (carp; 1 mg/l, 20 g carp, artesian well water, 10 C): 30 h; carp killed (carp; 1.5 mg/l, 72 h, artesian well water, 10 C): 100%; carp killed (carp; 1.5 mg/l, 96 h, artesian well water, 10 C): 90%; carp killed (carp; 2.0 mg/l, 24 h, artesian well water, 10 C): 100%; selectivity to carp (carp): specific for the carp and bullhead catfish; selectivity to carp (carp; listed as 2, 2-dichlorovinyl diethyl phosphate): the carp died first; recommended safe and effective concentration (stickleback [2]; 10 C): 5 mg/L; recommended safe and effective concentration (stickleback [2]; 15 C): 3 mg/L; concentrations for control (upper: greater than) (stickleback [2]; Kamloops, 10 C, 24 h or less, river water): 4-4 mg/l; half-life [3]: 15 days

**Q.** With `CCOP(=O)(OCC)OC(Cl)C(Cl)(Cl)Cl` (stereo not drawn) [2,2,2,1-tetrachloroethyl diethyl phosphate] as the compound, how does the LC0 (kokanee; 48 h) read?
**A.** 30 µg/L

**Q.** And the LC0 (kokanee; 96 h)?
**A.** 20 µg/L

**Q.** What about the LC0 (kokanee; 192 h) of the same compound?
**A.** 20 µg/L

**Q.** And the LC50 at 48 h ([4]; 48 h)?
**A.** 0.04 µg/mL

**Q.** And the LC50 at 96 h ([4]; 96 h)?
**A.** 0.03 µg/mL

**Q.** What about the LC50 at 192 h ([4]; 192 h) of the same compound?
**A.** 0.027 µg/mL

**Q.** And the LC0 (coho salmon; 48 h)?
**A.** 30 µg/L

**Q.** What about the LC0 (coho salmon; 96 h) of the same compound?
**A.** 14 µg/L

**Q.** What about the LC0 (coho salmon; 192 h) of the same compound?
**A.** 8 µg/L

**Q.** What about the LC50 at 96 h ([5]; 96 h) of the same compound?
**A.** 0.023 µg/mL

**Q.** And the LC50 at 192 h ([5]; 192 h)?
**A.** 0.015 µg/mL
